The text below walks through data of publication PMC11274801, “A Novel PDE10A Inhibitor for Tourette Syndrome and Other Movement Disorders” (Cells, 2024).

One assay concerns striatal cAMP and cGMP. Description: cAMP and cGMP levels in the striatum. Type of assay: in vivo, rat. The settings on record: maximal dose 30 mg/kg. The method, then: The striatum was dissected, weighed, and then frozen in liquid nitrogen. For cyclic nucleotide measurements, frozen striatal tissue was homogenized in 5% trichloroacetic acid and centrifuged and the supernatant was collected. Supernatants were ether-washed and then the cAMP and cGMP levels in the aqueous phase were determined by enzyme immunoassay using kits from Cayman Chemical Co. (Ann Arbor, MI, USA)

Assay [1] deals with patients with stage I–II HD. The arrangement: method as in earlier work. The following applies: cited from earlier work.
In a further assay the test system is primates. The arrangement: method as in PMID 24490227. The settings on record: cited from earlier work.
The test system of the next assay is D2 receptor. The settings on record: 2–5 mg daily ref 54; cited from earlier work.
For another assay, the system named is acute schizophrenia. The settings on record: press release ref 44; cited from earlier work.

Take `Cn1cc(-c2ccncc2)c(-c2ccc(OCc3ccc4ccccc4n3)cc2)n1` [MP-10]: the “effect on striatal cAMP and cGMP levels” value with striatal cAMP and cGMP is listed as “increases”. In addition, in assay [1] (26-week phase 2, 272 patients ref 45), the “primary outcome (UHDRS-TMS) and clinical global impression of improvement” value was “no improvement in the primary outcome measure”. In assay [1] (26-week phase 2 ref 45), the “quantitative motor assessment (Q-motor)” value was “dose-dependent improvement”. In the assay on primates, the “effect on motivational aspects of behavior” value was “dampen motivational aspects of behavior to a greater extent than a D2 antagonist”.

`O=C(CCCN1CCC(O)(c2ccc(Cl)cc2)CC1)c1ccc(F)cc1` [haloperidol]: in the assay on D2 receptor, the D2 occupancy is given as 60–80%.

For `Cc1ncc(C)n2nc(-c3ccn4cc(-c5ccccc5)nc4n3)nc12` [CPL500-036], in the assay with acute schizophrenia, the “efficacy in acute schizophrenia” value is given as “positive efficacy vs. placebo”.
